Our source for the IC50 values is patent US9139581B2 (PORTOLA PHARMACEUTICALS, INC., priority 2008, dated 2015).

A value given as a limit tells only on which side of the number the result lay.

The target in the first assay is T1, full length active recombinant SYK enzyme (Homo sapiens, UniProt P43405).
T1 construct: full length active recombinant SYK enzyme (Millipore, Calif.); purchased Millipore
In words: Inhibition of Syk tyrosine phosphorylation activity (LANCE TR-FRET). Type of assay: biochemical. Particulars: Table 3; 1 nM SYK, 100 μM ATP; read-out: Syk IC50 code. How it is done:
The in vitro and in vivo human syk activities of the inventive compounds can be determined by various procedures known in the art, such as a test for their ability to inhibit the activity of human plasma syk. […] Inhibition of Syk Tyrosine Phosphorylation Activity Potency of candidate molecules for inhibiting syk tyrosine phosphorylation activity is assessed by measuring the ability of a test compound to inhibit syk-mediated tyrosine phosphorylation of a syk-specific substrate. SYK tyrosine phosphorylation activity is measured using the LANCETM Technology developed by Perkin Elmer Life and Analytical Sciences (Boston, Mass.). LANCETM refers to homogeneous time resolved fluorometry applications using techniques such as time-resolved fluorescence resonance energy transfer assay (TR-FRET) (see generally for procedures in Perkin Elmer Application Note-How to Optimize a Tyrosine Kinase Assay Using Time Resolved Fluorescence-Based LANCE Detection, wwww.perkinelmer.com/lifesciences). The assay principle involves detection of a phosphorylated substrate using energy transfer from a phosphospecific europium-labeled antibody to streptavidin-allophycocyanin as an acceptor. To test the ability of candidate molecules to inhibit SYK tyrosine phosphorylation activity, molecules are reconstituted in 30% DMSO and serially diluted 1:3 with the final dilution containing DMSO in the absence of the candidate molecule. The final DMSO concentration in the assay is 3%. Kinase assays are performed as a two part reaction. The first reaction is a kinase reaction and which comprises of a candidate molecule, full length active recombinant SYK enzyme (Millipore, Calif.) and biotin-labeled SYK-specific substrate biotin-[…]-OH. The second reaction involves termination of the kinase reaction and the simultaneous addition of the detection reagents-europium-labeled anti-phosphotyrosine reagent (Eu-W1024-PY100, Perkin Elmer, Boston, Mass.) and Streptavidin-Allophycocyanin detection reagent (SA-APC, Prozyme, Calif.). The kinase reaction is performed in a black U-bottom 96-well microtitre plate. […] The reaction is allowed to proceed for 1 hour at room temperature. […] The detection reagents are added to the reaction mixture at the following dilutions-1:500 for Eu-W1024-PY100 and 1:250 for SA-APC. The kinase reaction is terminated by the addition of 50 μL quench buffer containing the detection reagents. The detection is allowed to proceed for 1 hr at room temperature. Detection of the phosphorlated substrate in the absence and presence of inhibitors is measured in the TR-FRET instrument, Analyst HT ([…], Sunnyvale, Calif.) and the condition for measurements are set up using CriterionHost Release 2.0 ([…], Sunnyvale, Calif.). […] IC50s were derived by non-linear regression analysis.
(Time-resolved FRET reads energy transfer from a long-lived donor to a nearby acceptor.)
In the case of `CC(=O)N1CCN(c2ccc(Nc3ncc(F)c(N[C@H]4CC[C@@H](N)CC4)n3)cc2)CC1` [Example 142, 1-(4-(4-(4-((1s,4s)-4-aminocyclohexylamino)-5-fluoropyrimidin-2-ylamino)phenyl)piperazin-1-yl)ethanone], the IC50 (as a rule, the concentration needed to halve the response being measured) was in the range of 100 to 1000 nM.

In the case of `CC(=O)N1CCN(c2ccc(Nc3nc(N[C@@H](C)CO)c4cc[nH]c4n3)cc2)CC1` [Example 99A, (S)-1-(4-(4-(4-(1-hydroxypropan-2-ylamino)-7H-pyrrolo[2,3-d]pyrimidin-2-ylamino)phenyl)piperazin-1-yl)ethanone], the 50% inhibitory concentration (IC50) was 100 to 1000 nM.

Turning to `CC(=O)N1CCN(c2ccc(Nc3ncc(F)c(N4CCN(C(=O)CC#N)CC4)n3)cc2)CC1` [Example 137, 3-(4-(2-(4-(4-acetylpiperazin-1-yl)phenylamino)-5-fluoropyrimidin-4-yl)piperazin-1-yl)-3-oxopropanenitrile], the IC50 is greater than 1000 nM.

On to `CC(=O)N1CCN(c2ccc(Nc3ncc(C(N)=O)c(N4CCC(CNC(N)=O)CC4)n3)cc2)CC1` [Example 130, 2-(4-(4-acetylpiperazin-1-yl)phenylamino)-4-(4-(ureidomethyl)piperidin-1-yl)pyrimidine-5-carboxamide], for which the IC50 is greater than 1000 nM.

In the case of `CC(=O)N(C)c1ccc(Nc2nc(Nc3cccc(CN)c3)c3cc[nH]c3n2)cc1` [Example 97, N-(4-(4-(3-(aminomethyl)phenylamino)-7H-pyrrolo[2,3-d]pyrimidin-2-ylamino)phenyl)-N-methylacetamide], the IC50 lay in the range of 100 to 1000 nM.

In the case of `COC(=O)C(N)C1CCN(c2nc(Nc3ccc4c(c3)CCC(=O)N4)ncc2F)CC1` (centres unmarked) [Example 135, Methyl 2-amino-2-(1-(5-fluoro-2-(2-oxo-1,2,3,4-tetrahydroquinolin-6-ylamino)pyrimidin-4-yl)piperidin-4-yl)acetate], the half-inhibitory concentration (IC50) is greater than 1000 nM.

As for `CC(=O)N1CCN(c2ccc(Nc3ncc(Cl)c(N4CCC(CN)CC4)n3)cc2)CC1` [Example 122, 1-(4-(4-(4-(4-(aminomethyl)piperidin-1-yl)-5-chloropyrimidin-2-ylamino)phenyl)piperazin-1-yl)ethanone], the IC50 was 10 to 100 nM.

For `CNc1nc(Nc2ccc(N3CCN(C(C)=O)CC3)cc2)nc2[nH]cc(-c3ccncc3)c12` [Example 2, 1-(4-(4-(4-(methylamino)-5-(pyridin-4-yl)-7H-pyrrolo[2,3-d]pyrimidin-2-ylamino)phenyl)piperazin-1-yl)ethanone], the IC50 was 100 to 1000 nM.

With `NS(=O)(=O)c1cccc(Nc2nc(Nc3ccc(N4CCNCC4)cc3)nc3[nH]ccc23)c1` [Example 96B, 3-(2-(4-(piperazin-1-yl)phenylamino)-7H-pyrrolo[2,3-d]pyrimidin-4-ylamino)benzenesulfonamide], the IC50 lay within 10 to 100 nM.

As to `O=S(=O)(c1ccc(Nc2nc(NC3CCC3)c3cc[nH]c3n2)cc1)N1CCC(O)CC1` [Example 52, 1-(4-(4-(cyclobutylamino)-7H-pyrrolo[2,3-d]pyrimidin-2-ylamino)phenylsulfonyl)piperidin-4-ol], the concentration for half-maximal inhibition (IC50) lay in the range of 10 to 100 nM.

`CC(=O)N(C)c1ccc(Nc2nc(Nc3cccc(S(N)(=O)=O)c3)c3cc[nH]c3n2)cc1` [Example 68, N-(4-(4-(3-aminosulfonyl-phenylamino)-7H-pyrrolo[2,3-d]pyrimidin-2-ylamino)phenyl)-N-methylacetamide]: the IC50 lay within 100 to 1000 nM.

`CC(=O)N1CCN(c2ccc(Nc3nc(Nc4cccc(C(N)=O)c4)c4cc[nH]c4n3)cc2)CC1` [Example 95A, 3-(2-(4-(4-acetylpiperazin-1-yl)phenylamino)-7H-pyrrolo[2,3-d]pyrimidin-4-ylamino)benzamide]: the IC50 lay in the range of 100 to 1000 nM.

Turning to `CNc1nc(Nc2ccc3cn[nH]c3c2)nc2[nH]cc(-c3ccncc3)c12` [Example 1, N2-(1H-indazol-6-yl)-N4-methyl-5-(pyridin-4-yl)-7H-pyrrolo[2,3-d]pyrimidine-2,4-diamine], the concentration for half-maximal inhibition (IC50) lay in the range of 10 to 100 nM.

On to `NC(=O)c1cccc(Nc2nc(Nc3ccc(N4CCNCC4)cc3)nc3[nH]ccc23)c1` [Example 95B, 3-(2-(4-(piperazin-1-yl)phenylamino)-7H-pyrrolo[2,3-d]pyrimidin-4-ylamino)benzamide], for which the IC50 is 100 to 1000 nM.

With `CN1C(=O)CCc2cc(Nc3nc(N)c4c(-c5ccc(F)cc5)c[nH]c4n3)ccc21` [Example 113, 6-(4-Amino-5-(4-fluorophenyl)-7H-pyrrolo[2,3-d]pyrimidin-2-ylamino)-1-methyl-3,4-dihydroquinolin-2(1H)-one], the IC50 was greater than 1000 nM.

On to `CC(=O)N(C)c1ccc(Nc2nc(NCCCCCN)c3c(Br)c[nH]c3n2)cc1` [Example 67, N-(4-(4-(5-aminopentylamino)-5-bromo-7H-pyrrolo[2,3-d]pyrimidin-2-ylamino)phenyl)-N-methylacetamide], for which the half-inhibitory concentration (IC50) was greater than 1000 nM.

As for “6-(5-fluoro-4-(3-oxopiperazin-1-yl)pyrimidin-2-ylamino)-3,4-dihydroquinolin-2(1H)-one [Example 123]”, the IC50 is greater than 1000 nM.

Take `CN(C(=O)C1CC1)c1ccc(Nc2nc(NC3CCC3)c3cc[nH]c3n2)cc1` [Example 80, N-(4-(4-(cyclobutylamino)-7H-pyrrolo[2,3-d]pyrimidin-2-ylamino)phenyl)-N-methylcyclopropanecarboxamide]: the IC50 lay in the range of 100 to 1000 nM.

For `CC(=O)N1CCN(c2ccc(Nc3ncc(F)c(N4CCC(NC(=O)CC#N)CC4)n3)cc2)CC1` [Example 136, N-(1-(2-(4-(4-acetylpiperazin-1-yl)phenylamino)-5-fluoropyrimidin-4-yl)piperidin-4-yl)-2-cyanoacetamide], the IC50 was greater than 1000 nM.

Regarding `CC(=O)N1CCN(c2ccc(Nc3ncc(F)c(N4CCC(CC(N)=O)CC4)n3)cc2)CC1` [Example 126, 2-(1-(2-(4-(4-acetylpiperazin-1-yl)phenylamino)-5-fluoropyrimidin-4-yl)piperidin-4-yl)acetamide], the IC50 lay in the range of 100 to 1000 nM.

For `COc1ccc(Nc2nc(Nc3ccc4c(c3)CCC(=O)N4)nc3[nH]cc(C#N)c23)cc1` [Example 111, 4-(4-methoxyphenylamino)-2-(2-oxo-1,2,3,4-tetrahydroquinolin-6-ylamino)-7H-pyrrolo[2,3-d]pyrimidine-5-carbonitrile], the IC50 fell in the range of 100 to 1000 nM.

For the compound `OCCNc1nc(Nc2ccc3cn[nH]c3c2)nc2[nH]ccc12` [Example 91, N^2-(1H-indazol-6-ylamino)-N^4-(2-hydroxyethyl)-7H-pyrrolo[2,3-d]pyrimidine-2,4-diamine], the IC50 was in the range of 10 to 100 nM.

For the compound `NC(=O)NCC1CCN(c2nc(Nc3ccc4c(c3)CCC(=O)N4)ncc2F)CC1` [Example 37, 1-((1-(5-fluoro-2-(2-oxo-1,2,3,4-tetrahydroquinolin-6-ylamino)pyrimidin-4-yl)piperidin-4-yl)methyl)urea], the IC50 lay within 100 to 1000 nM.

`O=S1(=O)CCC(Nc2nc(Nc3ccc(N4CCNCC4)cc3)nc3[nH]ccc23)C1` (centres unmarked) [Example 100B, N2-(4-(piperazin-1-yl)phenyl)-N4-(1,1-dioxy-tetrahydrothiophen-3-yl)-7H-pyrrolo[2,3-d]pyrimidine-2,4-diamine]: the half-maximal inhibitory concentration (IC50) is greater than 1000 nM.

As for `CC(=O)N1CCN(c2ccc(Nc3ncc(F)c(N4CCN(C(N)=O)CC4)n3)cc2)CC1` [Example 125, 4-(2-(4-(4-acetylpiperazin-1-yl)phenylamino)-5-fluoropyrimidin-4-yl)piperazine-1-carboxamide], the IC50 was greater than 1000 nM.

Staying with this assay, now noted: Table 4; 1 nM SYK, 100 μM ATP; read-out: syk IC50.
In the case of `CC(=O)N1CCN(c2ccc(Nc3nc(N4CC[C@H](O)C4)c4cc[nH]c4n3)cc2)CC1` [Example 13, (S)-1-(4-(4-(4-(3-hydroxypyrrolidin-1-yl)-7H-pyrrolo[2,3-d]pyrimidin-2-ylamino)phenyl)piperazin-1-yl)ethanone], the IC50 is greater than 1000 nM.

Turning to `NCC1CCN(c2nc(Nc3ccc(S(N)(=O)=O)cc3)ncc2F)CC1` [Example 32, 4-(4-(4-(aminomethyl)piperidin-1-yl)-5-fluoropyrimidin-2-ylamino)benzenesulfonamide], the IC50 fell in the range of 10 to 100 nM.

Take `NC(=O)C1CCN(c2nc(Nc3ccc(N4CCNCC4)cc3)nc3[nH]ccc23)CC1` [Example 23, 1-(2-(4-(piperazin-1-yl)phenylamino)-7H-pyrrolo[2,3-d]pyrimidin-4-yl)piperidine-4-carboxamide]: the IC50 was greater than 1000 nM.

Take `NCC1CCCCN1c1nc(Nc2ccc3cn[nH]c3c2)ncc1F` (centres unmarked) [Example 36, N-(4-(2-(aminomethyl)piperidin-1-yl)-5-fluoropyrimidin-2-yl)-1H-indazol-6-amine]: the IC50 was greater than 1000 nM.
